According to patent US10851096B2, “Aryl and heteroaryl amides for use as anti-proliferative, anti-thrombotic, and anti-viral agents” (Rutgers, The State University of New Jersey, priority 2016, dated 2020):

Experiments:
Axl/Gas6 interaction = molecular target: T1, Axl/Gas6 interaction (Homo sapiens, UniProt P30530); assay: Pull-down competitive inhibition assay of Gas6 binding to His-tagged soluble Axl; conditions: His-tagged soluble Axl Ig1/Ig2 with recombinant Gas6
T1 construct: His-tagged soluble Axl Ig1/Ig2 recombinant proteins; Amgen (Gas6 only)
Procedure: 400 nM His tagged-sAxl were co-incubated with increasing amounts of compound 1A (0, 5, 10 or 20 μM) in a 50 μl reaction mixture of Tris-Nacl Buffer (20 mM Tris.HCl, 150 mM NaCl, pH 8.0), and incubated at 37° C. for 60 minutes, with intermittent mixing. Thereafter, equal amount of hGas6 (100 nM) was added to each tube and incubated at 37° C. for another 60 minutes, with intermittent mixing. To each of the tubes, 1 μg of 6×-His antibody was added and the mixture was incubated overnight at 4° C. on a rotary mixer. After overnight incubation, 30 μl of Protein A/G PLUS agarose beads (Santa Cruz) were added into each of the tubes and incubated for an hour at 4° C. The mixtures were centrifuged and the pellets were then washed four times in ice-cold Nonidet P-40 buffer (20 mM Tris.HCl, 150 mM NaCl, pH 8.0 and 1% Nonidet P-40). Pellets were re-suspended in 30 μl of 2× sample loading dye and boiled for 5 min at 95° C. The samples were fractionated by SDS-PAGE and bound Gas6 was analyzed by immunoblotting.

H1299 cells = assay: Colony forming assay, H1299; assay type: cell-based, human; conditions: H1299 cultured in the presence of Gas6
Procedure: H1299 cells were plated in 6 well plates at a very low density (˜250 cells/well). Next day, the cells were treated with the SMIs at different concentrations. The cells were incubated with the drugs for 14 days. After 14 days, colonies were stained with 0.25% crystal violet in 95% ethanol. Colonies consisting of more than 50 cells were counted.

[1] = Toxicity and body weight in xenograft mice; assay type: in vivo; conditions: for body weights: 100 mg/kg, versus vehicle; for toxicity in cell culture or in vivo: up to highest dose tested 300 mg/kg IP
Procedure: (§1) 500,000 H1299 cells in 100 μl of PBS were injected subcutaneously into the right flank of 4-6 week NOD/SCIDg mice. Once tumors were palpable, the mice were randomized into 3 groups, each group had 6 mice: control mice were treated with vehicle (DMSO) intraperitoneally (IP) and the treatment groups with compound 1I (day 1, day 2, day 3 and day 4) or with compound 1Q (day 1, day 2, day 3, day 4, day 7 and day 8) at a dose of 100 mg/kg IP. Similar studies were conducted on compound 1Q dosed at 300 mg/kg in mice. Tumor size and body weights were measured three times a week and the tumor volume calculated.

native Axl = molecular target: T2, native Axl (Homo sapiens, UniProt P30530); assay: Gas6-inducible phosphorylation of native Axl in MDA-MB-231 cells (immunoblot); assay type: cell-based; conditions: MBA-MD-231 breast cancer cell line, FIG. 5A
T2 construct: Gas6-inducible phosphorylation of native Axl (pAxl); endogenous in cells; host or cells: MDA-MB-231
T2 sequence (P30530 26-894): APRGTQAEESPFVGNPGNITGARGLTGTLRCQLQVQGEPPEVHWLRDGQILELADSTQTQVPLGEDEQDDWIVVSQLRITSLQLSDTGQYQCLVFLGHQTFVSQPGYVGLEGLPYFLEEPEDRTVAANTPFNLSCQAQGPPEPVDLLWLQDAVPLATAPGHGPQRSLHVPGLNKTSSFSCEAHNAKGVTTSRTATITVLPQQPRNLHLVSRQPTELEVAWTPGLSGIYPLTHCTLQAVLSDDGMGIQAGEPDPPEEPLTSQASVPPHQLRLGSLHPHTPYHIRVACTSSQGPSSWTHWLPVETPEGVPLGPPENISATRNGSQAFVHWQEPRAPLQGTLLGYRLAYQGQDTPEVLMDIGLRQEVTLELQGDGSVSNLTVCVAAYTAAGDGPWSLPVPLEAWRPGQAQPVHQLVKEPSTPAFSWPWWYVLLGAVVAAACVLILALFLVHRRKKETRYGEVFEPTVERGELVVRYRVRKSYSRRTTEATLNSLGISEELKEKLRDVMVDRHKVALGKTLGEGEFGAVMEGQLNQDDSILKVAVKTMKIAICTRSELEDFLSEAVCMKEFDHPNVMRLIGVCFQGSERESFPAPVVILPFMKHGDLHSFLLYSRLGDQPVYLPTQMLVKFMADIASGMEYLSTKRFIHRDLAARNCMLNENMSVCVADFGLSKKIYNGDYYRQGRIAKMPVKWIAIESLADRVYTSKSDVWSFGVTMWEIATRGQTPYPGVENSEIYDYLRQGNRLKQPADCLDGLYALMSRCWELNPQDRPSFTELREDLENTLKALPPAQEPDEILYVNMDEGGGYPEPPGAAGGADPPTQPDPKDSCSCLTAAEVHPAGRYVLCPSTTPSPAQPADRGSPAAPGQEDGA
Procedure: Stable hAxl/IFN-γR1 CHO reporter cell lines (containing human Axl extracellular domains and transmembrane and intracellular domains of human IFN-γR1) were serum starved for 5 hrs±small molecule inhibitors and then stimulated with human Gas6 conditioned media±small molecule inhibitors for 30 minutes. For H1299 human non-small cell lung carcinoma and MDA-MB-231 human breast adenocarcinoma cell lines, the cells were serum starved overnight±small molecule inhibitors and stimulated with human Gas6 conditioned media±small molecule inhibitors for 30 minutes. Whole cell lysates of hAxl/IFN-γR1, H1299 and MDA-MB-231 cells were prepared using HNTG buffer (20 mM HEPES, pH 7.5, 150 mM NaCl, 10% glycerol, 1% Triton X-100, 1 mM PMSF, 1 mM Na3VO4, 10 mM Na2MoO4, 1 mM EDTA, 10 mM NaF and 20 μg/mL aprotinin). The resulting lysates were resolved on SDS-PAGE gel and immunoblotted with respective antibodies.
Immunoblot data were obtained within a linear range of exposure, and intensities were quantified by ImageJ. The levels of hAxl/IFN-γR1 cells lines activation were measured by pSTAT1 whereas the levels of H1299 and MDA-MB-231 cell lines activation were measured by pAxl signal intensities. Blots were normalized to intensities of respective β-actin or GAPDH protein loading controls. […]

[2] = test system: H1299 lung cancer xenograft; assay: Mouse xenograft study, human H1299 lung cancer; assay type: in vivo; conditions: for growth of tumor (tumor volume): 100 mg/kg IP
Procedure: as §1
Finally, based on the promising in vitro and cell culture experiments showing anti-Axl activity of certain compounds, the in vivo efficacies of compound 1I and compound 1Q using a murine SCID/human H1299 lung cancer xenograft model was investigated (FIG. 7A-E). As indicated, SCID mice were subcutaneously injected with 250,000 tumor cells in the hind flanks with human H1299 cells until palpable tumors were present. Subsequently, mice were injected every two days with vehicle, compound 1I or compound 1Q at a concentration of 100 mg/kg for up to 2 weeks. […] Taken together, these studies support the further development of TAM Ig1 inhibitors as anti-cancer therapeutics (FIGS. 7A-E).

Row | Structure (SMILES) | inhibition of Axl/Gas6 interaction in vitro (Axl/Gas6 interaction) | clonogenic growth (H1299 cells) | body weights [1] | toxicity in cell culture or in vivo [1] | inhibition of activation (phosphorylation) of Axl (native Axl) | growth of tumor (tumor volume) [2] | tumor growth (volume) ([2]; 300 mg/kg IP)
1 | Cc1noc(C)c1CSc1ccccc1C(=O)N1CCN(c2cccc(C(F)(F)F)c2)CC1 [1I] | able to inhibit in vitro the Axl/Gas6 interaction in a dose-dependent manner | suppressed clonogenic growth | not significantly different | Neither compound 1I nor compound 1Q showed notable toxicity | potent inhibition | significantly suppressed growth of tumor | –
2 | Cc1cc(CSc2ccccc2C(=O)NCCNc2ccc(C(F)(F)F)cc2[N+](=O)[O-])on1 [1Q] | able to inhibit in vitro the Axl/Gas6 interaction in a dose-dependent manner | suppressed clonogenic growth | not significantly different | Neither compound 1I nor compound 1Q showed notable toxicity | potent inhibition | significantly suppressed growth of tumor | suppress tumor growth
